Assay results published in patent US4767781A, “Derivatives of beta-amino-gamma-trimethylammonio-butyrate and their production and use” (Takeda Chemical Industries, Ltd., priority 1981, dated 1988).
Structures can show the parent of a compound that is named as a salt.

Legend:
[1] = test system: ketone bodies (β-hydroxybutyrate) in blood; assay: Antiketogenic activity in fasted rats (blood β-hydroxybutyrate); format: in vivo, rat (male Sprague-Dawley); conditions: % of control rats; 50 mg/kg oral, 4 hours after dosing, 20 h fasted, n = 5
Procedure: Antiketogenic activities of derivatives of β-amino-γ-trimethylammonio-butyrate were measured as follows: […] Blood […] 4 hours later from a vein of tail and ketone bodies were measured as β-hydroxybutyrate according to the modified method of Williamson [D. H. Williamson et al.; Methods of Enzymatic Analysis, P454 (1968), Academic Press, New York]. The amount of ketone bodies was shown as a relative amount of β-hydroxybutyrate (percentage) to the amount of p-hydroxybutyrate in blood of control rats.

[2] = test system: fatty acid degradation which depends on carnitine added (rat liver homogenates); assay: Inhibition of carnitine-dependent fatty acid degradation (14CO2 from 1-14C palmitic acid) in rat liver homogenate; format: biochemical, rat (SD, male)
Procedure: Then, the fatty acid degradation inhibiting activity of the compound (I), (III), (IV) was determined in accordance with the method described in P.75 "Metabolism of Lipids" which is Vol. 9 of "Seikagaku Jikken Koza" (Text of Biochemical Experiments)compiled by Tokyo Kagaku Dojin, published 1975, using rat liver homogenates. Thus, an SD strain rat (6 weeks of age, male) was fasted for one day and, then, bled to death. The liver was immediately excised and homogenized with 10 times (w/v) of a 0.25 M sucrose solution containing a 5 mM Tris-HCl buffer (pH 7.4), 0.1 mM EDTA and 1 mg/ml bovine serum albumin using a Teflon rod homogenizer. The homogenate was centrifuged at 820 ×g for 10 minutes and the supernatant was further centrifuged at 8,000 ×g for 10 minutes. The resultant pellets were suspended in the same sucrose solution as above to a concentration of 0.2 g wet liver weight/0.5 ml solution and 0.5 ml of the suspension was used as the enzyme solution in the reacrion. […] The inhibitory activity is shown as percentage of inhibitory activity to degradation activity of fatty acid facilitated by the addition of carnitine to that of not added of the compound.

Solubilities = format: physicochemical
[3] = Stability in aqueous solution; format: physicochemical; conditions: pH 3 to 9, 100° C., 10 minutes
[4] = concentration of drug 2 mM, R2 = --OH
[5] = in petroleum ether, hexane, diethyl ether, benzene, ethyl acetate, chloroform
[6] = in pyridine, acetone, dimethyl sulfoxide, dimethylformamide

SMILES	relative amount of β-hydroxybutylate (%) [1] [%]	Inhibition (%) ([2]; concentration of drug 0.2 mM)	Inhibition (%) [2, 4] [%]	Inhibition (%) ([2]; concentration of drug 2 μM)	Inhibition (%) ([2]; concentration of drug 20 μM)	further results
CN[C@H](CC(=O)[O-])C[N+](C)(C)C [--CH3, [(R)-2-methylammonio-3-carboxypropyl]trimethylammonium . dichloride]	19.9	89	100			
CCCC(=O)N[C@H](CC(=O)[O-])C[N+](C)(C)C [--CO(CH2)2 CH3, [(R)-3-carboxy-2-n-butyrylaminopropyl]trimethylammonium picrate]			50			
CCCCCCCCCCCCCC(=O)N[C@H](CC(=O)[O-])C[N+](C)(C)C [--CO(CH2)12 CH3, (R)-3-myristoylamino-4-trimethylammoniobutyrate]	7.9					
CCCCCCCCCCCCCCCC(=O)N[C@H](CC(=O)[O-])C[N+](C)(C)C [--CO(CH2)14 CH3, (R)-3-palmitoylamino-4-trimethylammoniobutyrate]	6.7			100	100	
CCC(=O)N[C@H](CC(=O)O)C[N+](C)(C)C.[Cl-] [--COCH2 CH3, [(R)-3-carboxy-2-propionylaminopropyl]trimethylammonium chloride]			44			
CC(=O)N[C@@H](CC(=O)O)C[N+](C)(C)C.[Cl-] [--COCH3 (D-), [(S)-2-acetylamino-3-carboxypropyl]trimethylammonium chloride]		2	28			
C[N+](C)(C)C[C@@H](CC(=O)[O-])NC=O [--COH, [(R)-3-carboxy-2-formylaminopropyl]trimethylammonium picrate]	75.7	53	84			
C[N+](C)(C)C[C@@H](CC(=O)O)NC(N)=O.[Cl-] [--CONH2, [(R)-3-carboxy-2-carbamoylaminopropyl]trimethylammonium chloride]	63.2	34	72			
C[N+](C)(C)C[C@@H](CC(=O)[O-])NC(=O)OCc1ccccc1 [--COOCH2 C6 H5, (R)-3-benzyloxycarbonylamino-4-trimethylammoniobutyrate]	19.7	85	98			
C[N+](C)(C)C[C@@H](N)CC(=O)O.Cl.[Cl-] [--H (D-), [(S)-2-ammonio-3-carboxypropyl]trimethylammonium dichloride]		11	36			
C[N+](C)(C)C[C@H](N)CC(N)=O [--NH2, [(R)-2-ammonio-3-carbamoylpropyl]trimethylammonium dipicrate]		67		10	27	
CCCOC(=O)C[C@@H](N)C[N+](C)(C)C [--O(CH2)2 CH3, [(R)-2-ammonio-3-carbopropoxypropyl]trimethylammonium dipicrate]				41	69	
CCOC(=O)C[C@@H](N)C[N+](C)(C)C [--OCH2 CH3, [(R)-2-ammonio-3-carboethoxypropyl]trimethylammonium monochloride monopicrate]	5.9			37	85	
COC(=O)C[C@@H](N)C[N+](C)(C)C [--OCH3, [(R)-2-ammonio-3-carbomethoxypropyl]trimethylammonium dipicrate]				26	73	
CC(=O)N[C@H](CC(=O)[O-])C[N+](C)(C)C [FA-5859.hydrochloride]						Solubility (Solubilities; in ethanol, methanol): Soluble; Solubility (Solubilities; [5]): Insoluble; Solubility (Solubilities; [6]): Hardly soluble; Solubility (Solubilities; in water): Readily soluble; Stability [3]: stable
CC(=O)N[C@H](CC(=O)[O-])C[N+](C)(C)C [FA-5859]						Solubility (Solubilities; in ethanol, methanol): Soluble; Solubility (Solubilities; [5]): Insoluble; Solubility (Solubilities; [6]): Hardly soluble; Solubility (Solubilities; in water): Readily soluble; Stability [3]: Stable
